The values below come from PubChem BioAssay (NCI).

Test systems include RXF 393 renal; LOX IMVI melanoma; A498 renal; SK-OV-3 ovarian; CCRF-CEM leukemia; 786-0 renal; KM12 colon; OVCAR-3 ovarian; SF-295 CNS; MALME-3M melanoma.
Assay in all cases: DTP human tumour cell line panel, 48 h

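Values below derive from 48-hour exposures of cells grown in 96-well plates, with endpoints linearly interpolated between the two concentrations bracketing the appropriate inhibition level. At the GI50, growth is halved. TGI marks complete inhibition of growth.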

Take `Cn1c2c(c3ccccc31)CCN(CCN1CCN(c3cccc(Cl)c3)CC1)C2=O`: the TGI in the experiment on RXF 393 renal, with LOX IMVI melanoma, in the experiment with A498 renal, with SK-OV-3 ovarian, in the experiment with CCRF-CEM leukemia and with 786-0 renal was greater than 100 µM in each case.

As to `Cc1ccc(NC(=O)c2cc(S(=O)(=O)N3C(=O)NC(=O)NS3(=O)=O)c(S)cc2Cl)cc1`, the GI50 – broadly, the concentration that inhibits growth by half – is 11.5 µM in the experiment on RXF 393 renal; 20.7 µM in the experiment on LOX IMVI melanoma; 26.2 µM in the experiment on A498 renal; 67.8 µM in the experiment with SK-OV-3 ovarian; 22.2 µM in the experiment on KM12 colon; 15.9 µM in the experiment with CCRF-CEM leukemia. In addition, the GI50 in the experiment with OVCAR-3 ovarian is 16.5 µM; with 786-0 renal, 40.4 µM; in the experiment with SF-295 CNS, 26.2 µM. For the same compound, the TGI (commonly the concentration at which net growth stops) in the experiment on RXF 393 renal is 54.5 µM; in the experiment on LOX IMVI melanoma, 56.1 µM; in the experiment with A498 renal, 68.5 µM; in the experiment with SK-OV-3 ovarian, greater than 100 µM; with KM12 colon it was 52.2 µM; in the experiment on CCRF-CEM leukemia, 40.3 µM. Also, the TGI is 36.4 µM with OVCAR-3 ovarian, greater than 100 µM in the experiment on 786-0 renal and 55 µM with SF-295 CNS.

Take `O=[N+]([O-])c1ccc(-c2ccc(-c3csc(Nc4ccccc4)n3)o2)cc1`: the TGI is 34.8 µM in the experiment on LOX IMVI melanoma; 34.5 µM in the experiment on A498 renal; 32.1 µM in the experiment on MALME-3M melanoma; greater than 100 µM with SK-OV-3 ovarian; 38.3 µM with KM12 colon; 16.9 µM in the experiment with CCRF-CEM leukemia. The TGI was 33.7 µM in the experiment with OVCAR-3 ovarian, 30.9 µM in the experiment on 786-0 renal and greater than 86.4 µM in the experiment with SF-295 CNS.

In the case of `Cc1ccccc1NC(=O)C1C(=O)N(c2ccccc2C)C(=O)/C1=N\NC(N)=S` (stereo unspecified), the TGI in the experiment on LOX IMVI melanoma, in the experiment on MALME-3M melanoma, with SK-OV-3 ovarian, in the experiment with KM12 colon, with CCRF-CEM leukemia and with OVCAR-3 ovarian was greater than 100 µM in each case. The TGI with 786-0 renal and with SF-295 CNS was greater than 100 µM each time.

In the case of `CCOC(=O)NC(=O)c1cn(CCN2CCN(C(=O)CCCCCCCCCCC(=O)N3CCN(CCn4cc(C(=O)NC(=O)OCC)c(=O)[nH]c4=O)CC3)CC2)c(=O)[nH]c1=O`, the TGI in the experiment with LOX IMVI melanoma, in the experiment on A498 renal, in the experiment on MALME-3M melanoma, in the experiment with SK-OV-3 ovarian, in the experiment with KM12 colon and in the experiment with CCRF-CEM leukemia was greater than 100 µM in each case. Further, the TGI with OVCAR-3 ovarian, with 786-0 renal and with SF-295 CNS was greater than 100 µM throughout.

In the case of `CCN(C(=O)/C=C/c1ccco1)c1ccccc1`, the TGI in the experiment on RXF 393 renal, in the experiment with LOX IMVI melanoma, in the experiment on A498 renal, in the experiment on SK-OV-3 ovarian, in the experiment with KM12 colon and in the experiment on CCRF-CEM leukemia was greater than 100 µM throughout. The TGI with OVCAR-3 ovarian, in the experiment on 786-0 renal and with SF-295 CNS was greater than 100 µM each time.

As for `CCCCN(CCCC)C(=O)/C(CC(=O)c1cccc2ccccc12)=N\NC(=O)c1cc2ccccc2cc1O`, the TGI in the experiment on RXF 393 renal is 63 µM; in the experiment with LOX IMVI melanoma, 35.9 µM; in the experiment on MALME-3M melanoma it was 35.4 µM; with KM12 colon, greater than 100 µM; in the experiment with CCRF-CEM leukemia, 25.3 µM; with OVCAR-3 ovarian, 53.3 µM. The TGI with 786-0 renal was found to be 77.3 µM; in the experiment with SF-295 CNS, 92.7 µM.

As to `COC(=O)C1(O)CC(=O)CCC1c1ccc(OC)cc1` (stereo unspecified), the TGI in the experiment on LOX IMVI melanoma, in the experiment with A498 renal, with MALME-3M melanoma, with SK-OV-3 ovarian, with KM12 colon and in the experiment on CCRF-CEM leukemia was greater than 100 µM in each case. For the same compound, the TGI in the experiment on OVCAR-3 ovarian, in the experiment with 786-0 renal and in the experiment with SF-295 CNS was greater than 100 µM throughout.

In the case of `C=C1C[C@@H]2CC[C@@]34C[C@H]5O[C@H]6[C@@H](O3)[C@H]3O[C@H](CC[C@@H]3O[C@H]6[C@@H]5O4)CC(=O)C[C@@H]3[C@@H](OC)[C@@H](C[C@H](O)CN)O[C@H]3C[C@H]3O[C@@H](CC[C@@H]1O2)C[C@@H](C)C3=C`, the GI50 was less than 0.01 µM in the experiment on RXF 393 renal; less than 0.01 µM in the experiment with LOX IMVI melanoma; less than 0.0119 µM in the experiment on A498 renal; less than 0.01 µM in the experiment on KM12 colon; less than 0.01 µM in the experiment on CCRF-CEM leukemia; less than 0.01 µM in the experiment with OVCAR-3 ovarian. In addition, the GI50 with 786-0 renal is 0.0761 µM; with SF-295 CNS, less than 0.01 µM. Moreover, the TGI with RXF 393 renal was greater than 100 µM; in the experiment with LOX IMVI melanoma, 0.99 µM; in the experiment with A498 renal it was 0.0456 µM; in the experiment with SK-OV-3 ovarian, greater than 100 µM; in the experiment on KM12 colon, greater than 100 µM; in the experiment with CCRF-CEM leukemia, greater than 100 µM. Further, the TGI is 0.0219 µM with OVCAR-3 ovarian, greater than 100 µM in the experiment with 786-0 renal and 0.839 µM in the experiment on SF-295 CNS.

Take `O=c1c(F)cn(Cc2ccccc2CCl)c(=O)n1Cc1ccccc1CCl`: the GI50 with LOX IMVI melanoma is 1.23 µM; in the experiment on A498 renal, 1.58 µM; in the experiment on MALME-3M melanoma, 2.2 µM; with SK-OV-3 ovarian, 5.88 µM; with KM12 colon, 1.74 µM; with CCRF-CEM leukemia it was 1.04 µM. Further, the results for the GI50 with OVCAR-3 ovarian, with 786-0 renal and in the experiment on SF-295 CNS were 1.54 µM, 2.09 µM and 2.14 µM, respectively. Moreover, the TGI in the experiment with LOX IMVI melanoma was determined as 2.78 µM; with A498 renal, 5.97 µM; in the experiment on MALME-3M melanoma, 4.59 µM; in the experiment with SK-OV-3 ovarian, 15.1 µM; in the experiment with KM12 colon it was 3.68 µM; in the experiment with CCRF-CEM leukemia it was 3.5 µM. In addition, the TGI in the experiment on OVCAR-3 ovarian amounted to 3.07 µM; in the experiment on 786-0 renal, 4.44 µM; in the experiment on SF-295 CNS it was 6.16 µM.

On to `CCNC(=O)COc1ccc(Cl)cc1Cl`, for which the TGI in the experiment on A498 renal, in the experiment on MALME-3M melanoma, with SK-OV-3 ovarian, in the experiment with KM12 colon, in the experiment on OVCAR-3 ovarian and with 786-0 renal was greater than 100 µM throughout. Besides, the TGI with SF-295 CNS is greater than 100 µM.

For `CC(=O)/C(=C/c1ccccc1F)C(=O)c1ccccc1`, the TGI was 46 µM with RXF 393 renal; 40.8 µM in the experiment on LOX IMVI melanoma; greater than 100 µM in the experiment on A498 renal; greater than 100 µM with SK-OV-3 ovarian; greater than 100 µM in the experiment with KM12 colon; 58.8 µM with OVCAR-3 ovarian. The TGI with 786-0 renal and in the experiment on SF-295 CNS was greater than 100 µM each time.
